According to US20120035187A1 (priority 2009, published 2012):

Key:
[1] = tested on: hamsters with cerebellar ataxia; assay: Rotarod test in hamsters with cerebellar ataxia; type: in vivo, hamster; settings: hamster with cerebellar ataxia; agent of Example 1, 0.5 ml/hamster intraperitoneally once a day for 56 days
[2] = tested on: hamsters with cerebellar ataxia; assay: Falling down frequency of hamsters with cerebellar ataxia; type: in vivo, hamster; settings: hamster with cerebellar ataxia; agent of Example 1, 0.5 ml/hamster intraperitoneally once a day for 56 days
PC12-HS cells = assay: Evaluation B: neurite-outgrowth action in presence of NGF; type: cell-based, rat
[3] = tested on: ICR mice administered with amyloid β fragment; assay: Degeneration or defect of hippocampal pyramidal cells, mouse administered with amyloid β fragment, agents of Example 1; type: in vivo; settings: 4-point grade score none (0) to severe (3), average of 10 mice; agent of Example 1, 0.3 ml/head intraperitoneally once a day up to the 8th day
Protocol: One hundred and thirty ICR mice (commercialized by Charles Liver Laboratories Japan Inc., Kanagawa, Japan) were randomly divided into 13 groups, consisting of 10 mice in each group. Amyloid β fragment, represented by an amino acid sequence of SEQ ID NO: 1, used in Experiment 3 was aged at 37° C. for four days, and administered to the lateral ventricle of each mouse in an amount of 9 nmol/6 μl/mouse (the administration method is referred to “Brain Research”, Vol. 706, pp. 181-193 (1996)). […] The mice (10 heads) in the remaining one group were intraperitoneally administered with a sterilized 10% maltose solution (pyrogen-free) once a day up to the 8th day in an amount of 0.3 ml/mouse (control). On the 8th day after the administration, novel object recognition test (see, Japanese Patent Kokai No. 2008-193941) was performed and the average discrimination index (the ratio of prolonged seeking time for novel object to the total seeking time) as a cognitive function index were shown in Table 26. On the 9th day after the administration, the brain of the mice was anatomically isolated, prepared into tissue samples in conventional manner. Depositions of aggregation of amyloid fragment were observed by staining with Congo red or thioflavin T, and degeneration or defect of hippocampal pyramidal cells concerned with cognitive function. The degeneration or the defect of hippocampal pyramidal cells was evaluated by 4-point grade score, by regarding the condition of the control without administration of amyloid β fragment as “none (O)”, “slight (1)”, “moderate (2)”, and “sever (3)”, and the average scores of 10 mice are shown in Table 20.

CCCCCCCCN1C=CC(=CC=C(C=Cc2cc[n+](CCCCCCCC)c3ccccc23)c2cc[n+](CCCCCCCC)c3ccccc23)c2ccccc21.[I-].[I-] [NK-147]
Time of falling from rotarod [1]: 56.5 ± 9.8 s | Falling down frequency (count/min) [2]: 1.5 ± 0.8 count/min | Action on neurite outgrowth (%) (PC12-HS cells; compound concentration 80 ng/ml): 32 ± 7% | Action on neurite outgrowth (%) (PC12-HS cells; compound concentration 400 ng/ml): 50 ± 5% | Action on neurite outgrowth (%) (PC12-HS cells; compound concentration 2000 ng/ml): 70 ± 11% | Action on neurite outgrowth (%) (PC12-HS cells; compound concentration 10000 ng/ml): 35 ± 14% | Degeneration/defluxion of hippocampal pyramidal cell [3]: 1.5
